Source: publication PMC9558053, “Development of a novel high-throughput screen for the identification of new inhibitors of protein S-acylation” (The Journal of Biological Chemistry, 2022)

Molecular target: T1, human zDHHC7 (Homo sapiens, UniProt Q9NXF8)
T1 construct: expressed in transfected cells; host or cells: HEK293T
T1 sequence (Q9NXF8 1-308): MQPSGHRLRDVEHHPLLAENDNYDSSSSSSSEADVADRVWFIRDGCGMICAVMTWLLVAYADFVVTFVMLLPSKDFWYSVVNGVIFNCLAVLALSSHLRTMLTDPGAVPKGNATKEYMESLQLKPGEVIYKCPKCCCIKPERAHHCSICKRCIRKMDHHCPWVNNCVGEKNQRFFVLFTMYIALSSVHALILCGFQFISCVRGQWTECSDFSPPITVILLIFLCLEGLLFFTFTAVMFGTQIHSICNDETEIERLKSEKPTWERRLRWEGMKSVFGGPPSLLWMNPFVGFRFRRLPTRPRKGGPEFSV
Assay: PSD95-mCHERRY S-acylation in HEK293T cells co-expressing zDHHC7
Format: cell-based
Details: 25 μM
Source text: PSD95 (postsynaptic density protein 95) is a major S-acylated protein that has a critical role in the maturation of excitatory neurons and in synaptic plasticity ([46], [47]). PSD95 can be S-acylated by zDHHC2, zDHHC3, zDHHC7, and zDHHC15 ([6]). […] We therefore tested the effects of TTZ-1 and TTZ-2 on the S-acylation of PSD95 mediated by zDHHC2, zDHHC3, zDHHC7, and zDHHC15. […] In contrast, zDHHC3 and zDHHC7 activities toward PSD95 were unaffected by TTZ-1 and TTZ-2, mirroring the data obtained with GFP-SNAP25 as a substrate.
Figure 9 Activity of TTZ-1 and TTZ-2 against PSD95 S-acylation mediated by human zDHHC2, zDHHC3, zDHHC7, and zDHHC15 expressed in mammalian cells. HEK293T cells were transfected with a plasmid encoding PSD95-mCHERRY together with either a control plasmid pEF-BOS-HA (pEF) or a plasmid encoding either HA-tagged human zDHHC2 (zD2), zDHHC3 (zD3), zDHHC7 (zD7), or zDHHC15 (zD15) for 24 h. Cells were then preincubated for 4 h with TTZ-1 or TTZ-2 (25 μM final) or DMSO control before metabolic labeling with 100 μM C16:0-azide for 4 h. Cells were lysed, and proteins having incorporated C16:0-azide were labeled by click chemistry with an alkyne-IR800 dye. […] The data were quantified, and the graphs below each set of membranes show mean ± SEM of normalized S-acylation of PSD95-mCHERRY (click signal/RFP signal). […]

Compound	PSD95-mCHERRY S-acylation by zDHHC7
CCCCCCCOc1ccc(C(=O)Nc2cccc3c2OC(c2nnn[nH]2)CN3)cc1 (centres unmarked) [TTZ-1, N-(2-(1H-Tetrazol-5-yl)-3,4-dihydro-2H-benzo[b][1,4]oxazin-8-yl)-4-(heptyloxy)benzamide]	unaffected
O=C(Nc1cccc2c1OC(c1nnn[nH]1)CN2)c1ccc(OCCCCc2ccccc2)cc1 (centres unmarked) [TTZ-2, N-(2-(1H-Tetrazol-5-yl)-3,4-dihydro-2H-benzo[b][1,4]oxazin-8-yl)-4-(4-phenylbutoxy)benzamide]	unaffected
